Measured values taken from US10457644B2, “Pyrazol compounds as EAAT3 inhibitors” (Hoffmann-La Roche Inc., priority 2016, dated 2019).

Experiments:
human EAAT3 = target: T1, human EAAT3 (Homo sapiens, UniProt P43005); test: FLIPR Membrane Potential (FMP) assay; assay type: cell-based; conditions: HEK-293 cells stably expressing human EAAT3; L-glutamate as agonist at 80% of maximum response; antagonist applied 15 min before; Kb by Cheng-Prusoff from IC50
T1 construct: expressed in transfected cells
T1 sequence (P43005 1-524): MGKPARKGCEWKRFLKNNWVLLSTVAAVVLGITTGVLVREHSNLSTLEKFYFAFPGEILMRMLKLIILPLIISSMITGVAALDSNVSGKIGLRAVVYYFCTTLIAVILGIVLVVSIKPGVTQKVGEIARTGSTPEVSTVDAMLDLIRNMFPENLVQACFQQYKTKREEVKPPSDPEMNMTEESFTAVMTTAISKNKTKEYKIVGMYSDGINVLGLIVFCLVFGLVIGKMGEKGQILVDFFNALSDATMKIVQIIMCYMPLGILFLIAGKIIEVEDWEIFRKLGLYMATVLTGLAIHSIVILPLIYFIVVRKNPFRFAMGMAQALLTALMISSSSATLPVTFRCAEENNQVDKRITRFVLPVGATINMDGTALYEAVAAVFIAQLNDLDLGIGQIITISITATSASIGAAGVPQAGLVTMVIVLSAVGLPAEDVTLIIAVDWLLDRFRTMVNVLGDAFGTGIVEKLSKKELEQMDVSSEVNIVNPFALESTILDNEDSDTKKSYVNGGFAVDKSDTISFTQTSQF
Method: The FLIPR Membrane Potential (FMP) Assay
HEK-293 cells stably expressing human EAAT3 were seeded at 55 000 cells/well in growth medium (DMEM glutamate free (Invitrogen 11960-044), 1% Pen Strep (10 ml/l GIBCO BRL N^o 15140-023), 10% FCS non dialysed heat inactivated, 5 mg/l puromycin) in poly-D-lysine treated 96-well black microtiter plates with clear-bottom. After 24 h, the growth medium was removed and 100 μl/well of Krebs buffer (140 mM NaCl, 4.7 mM KCl, 2.5 mM CaCl2, 1.2 mM MgCl2, 11 mM HEPES, 10 mM D-glucose, pH=7.4) added. The cells were then loaded by adding 100 μl/well FMP assay dye (FLIPR Membrane Potential assay reagent, Molecular Devices). The 96-well plates were then incubated at 37° C. for 1 h. The depolarization of the cells will cause more dye to enter in the cells, where it will bind to intracellular proteins and lipids and cause an increase in the fluorescence signal. Antagonist potency at human EAAT3 was determined by using L-glutamate as agonist at a concentration which gives 80% of the maximum response. The antagonists were applied 15 min before the application of the agonist L-glutamate. The assays were performed at room temperature and measurements done by using a Fluorometric Imaging Plate Reader (FLIPR, Molecular Devices) and filter #2. Responses were measured as peak increase in fluorescence minus basal (i.e. fluorescence without addition of L-glutamate). Kb was determined using the Cheng-Prusoff equation Kb=IC50/[1+(A/EC50)], where IC50 is the concentration of the antagonist producing 50% inhibition, A is the concentration of the agonist against which the IC50 is being determined ([…]) and EC50 is the concentration of the agonist producing […].

Kb (human EAAT3) [µM] | melting point [°C] | Structure (SMILES)
1.28 | 155 | Cc1cc(-c2cc(C(=O)NC(C)(C)C)cc(-c3ccnn3C(C)C)c2)ccc1F [Example 15, N-tert-Butyl-3-(4-fluoro-3-methyl-phenyl)-5-(2-propan-2-yl-pyrazol-3-yl)-benzamide]
0.3 | 168 | CC(C)n1nccc1-c1cc(C(=O)NC(C)(C)C)cc(-c2ccccc2)c1 [Example 13, N-tert-Butyl-3-phenyl-5-(2-propan-2-yl-pyrazol-3-yl)-benzamide]
1.52 | 169 | CC(C)n1nccc1-c1cc(C(=O)NC(C)(C)C2CC2)cc(-c2ccc(Cl)cc2)c1 [Example 26, 3-(4-Chlorophenyl)-N-(2-cyclopropyl-propan-2-yl)-5-(2-propan-2-yl-pyrazol-3-yl)-benzamide]
0.92 | 166 | CC(C)(NC(=O)c1cc(-c2ccc(Cl)cc2)cc(-c2ccnn2C(C)(C)C)c1)C1CC1 [Example 35, 3-(2-tert-Butyl-pyrazol-3-yl)-5-(4-chlorophenyl)-N-(2-cyclopropyl-propan-2-yl)-benzamide]
0.89 | 72.5 | CCC(C)(C)NC(=O)c1cc(-c2ccc(Cl)cc2)cc(-c2ccnn2C(C)C)c1 [Example 19, 3-(4-Chlorophenyl)-N-(2-methyl-butan-2-yl)-5-(2-propan-2-yl-pyrazol-3-yl)-benzamide]
0.25 | 173 | COc1ccc(-c2cc(C(=O)NC(C)(C)C)cc(-c3ccnn3C(C)(C)C)c2)cc1 [Example 31, N-tert-Butyl-3-(2-tert-butyl-pyrazol-3-yl)-5-(4-methoxy-phenyl)-benzamide]
0.095 | 161 | CC(C)n1nccc1-c1cc(C(=O)NC(C)(C)C)cc(-c2ccc(F)cc2)c1 [Example 6, N-tert-Butyl-3-(4-fluorophenyl)-5-(2-propan-2-yl-pyrazol-3-yl)-benzamide]
0.37 | 119 | CC(C)(C#N)NC(=O)c1cc(-c2ccc(Cl)cc2)cc(-c2ccnn2C(C)(C)C)c1 [Example 22, 3-(2-tert-Butylpyrazol-3-yl)-5-(4-chlorophenyl)-N-(2-cyanopropan-2-yl)-benzamide]
1.13 | 198.5 | CC(C)(C)NC(=O)c1cc(-c2ccc(C3CC3)cc2)cc(-c2ccnn2C(C)(C)C)c1 [Example 37, N-tert-Butyl-3-(2-tert-butyl-pyrazol-3-yl)-5-(4-cyclopropyl-phenyl)-benzamide]
0.39 | 202 | Cc1ccc(-c2cc(C(=O)NC(C)(C)C)cc(-c3ccnn3C(C)(C)C)c2)cc1F [Example 29, N-tert-Butyl-3-(2-tert-butyl-pyrazol-3-yl)-5-(3-fluoro-4-methyl-phenyl)-benzamide]
0.29 | 225 | CC(C)(C)NC(=O)c1cc(-c2ccc(Cl)c(F)c2)cc(-c2ccnn2C(C)(C)C)c1 [Example 33, N-tert-Butyl-3-(2-tert-butyl-pyrazol-3-yl)-5-(4-chloro-3-fluoro-phenyl)-benzamide]
3.42 | 183.5 | CCC(C)(C)NC(=O)c1cc(-c2ccc(Cl)cc2)cc(-c2ccnn2C(C)(C)C)c1 [Example 18, 3-(2-tert-Butyl-pyrazol-3-yl)-5-(4-chlorophenyl)-N-(2-methyl-butan-2-yl)-benzamide]
0.17 | 84 | CC(C)n1nccc1-c1cc(C(=O)NC(C)(C)C)cc(-c2ccc(Cl)cc2)c1 [Example 5, N-tert-Butyl-3-(4-chlorophenyl)-5-(2-propan-2-yl-pyrazol-3-yl)-benzamide]
0.17 | 68 | CCn1nccc1-c1cc(C(=O)NC(C)(C)C)cc(-c2ccc(Cl)cc2)c1 [Example 24, N-tert-Butyl-3-(4-chlorophenyl)-5-(2-ethyl-pyrazol-3-yl)-benzamide]
0.24 | 191 | Cn1nccc1-c1cc(C(=O)NC(C)(C)C)cc(-c2ccc(Cl)cc2)c1 [Example 1, N-tert-Butyl-3-(4-chlorophenyl)-5-(2-methyl-pyrazol-3-yl)-benzamide]
0.32 | 72 | CC(C)(C)NC(=O)c1cc(-c2ccc(C(F)(F)F)cc2)cc(-c2ccnn2C2CC2)c1 [Example 43, N-tert-Butyl-3-(2-cyclopropyl-pyrazol-3-yl)-5-[4-(trifluoromethyl)-phenyl]-benzamide]
0.61 | 81 | CC(C)n1nccc1-c1cc(C(=O)NC(C)(C)C)cc(-c2ccc(F)c(Cl)c2)c1 [Example 12, N-tert-Butyl-3-(3-chloro-4-fluorophenyl)-5-(2-propan-2-yl-pyrazol-3-yl)-benzamide]
0.6 | 209.5 | CC(C)c1ccc(-c2cc(C(=O)NC(C)(C)C)cc(-c3ccnn3C(C)(C)C)c2)cc1 [Example 34, N-tert-Butyl-3-(2-tert-butyl-pyrazol-3-yl)-5-(4-propan-2-yl-phenyl)-benzamide]
0.27 | 80.5 | CC(C)n1nccc1-c1cc(C(=O)NC(C)(C)CO)cc(-c2ccc(Cl)cc2)c1 [Example 39, 3-(4-Chlorophenyl)-N-(1-hydroxy-2-methyl-propan-2-yl)-5-(2-propan-2-yl-pyrazol-3-yl)-benzamide]
0.37 | 193 | Cc1ccc(-c2cc(C(=O)NC(C)(C)C)cc(-c3ccnn3C(C)(C)C)c2)cc1 [Example 30, N-tert-Butyl-3-(2-tert-butyl-pyrazol-3-yl)-5-(4-methyl-phenyl)-benzamide]
0.88 | 83 | CC(C)n1nccc1-c1cc(C(=O)NC(C)(C)C)cc(-c2ccc(C3CC3)cc2)c1 [Example 14, N-tert-Butyl-3-(4-cyclopropyl-phenyl)-5-(2-propan-2-yl-pyrazol-3-yl)-benzamide]
0.24 | 201.5 | CC(C)(C)NC(=O)c1cc(-c2ccc(C#N)cc2)cc(-c2ccnn2C(C)(C)C)c1 [Example 38, N-tert-Butyl-3-(2-tert-butyl-pyrazol-3-yl)-5-(4-cyano-phenyl)-benzamide]
0.19 | 210 | CC(C)(C)NC(=O)c1cc(-c2ccc(F)cc2)cc(-c2ccnn2C(C)(C)C)c1 [Example 2, N-tert-Butyl-3-(2-tert-butyl-pyrazol-3-yl)-5-(4-fluorophenyl)-benzamide]
0.18 | 81 | CC(C)n1nccc1-c1cc(C(=O)NC(C)(C)C)cc(-c2ccc(C(F)(F)F)cc2)c1 [Example 7, N-tert-Butyl-3-(2-propan-2-yl-pyrazol-3-yl)-5-[4-(trifluoromethyl)-phenyl]-benzamide]
0.31 | 87 | CC(C)n1nccc1-c1cc(C(=O)NC(C)(C)C)cc(-c2ccc(Cl)c(F)c2)c1 [Example 16, N-tert-Butyl-3-(4-chloro-3-fluoro-phenyl)-5-(2-propan-2-yl-pyrazol-3-yl)-benzamide]
0.55 | 86 | CC(C)c1ccc(-c2cc(C(=O)NC(C)(C)C)cc(-c3ccnn3C(C)C)c2)cc1 [Example 10, N-tert-Butyl-3-(4-propan-2-yl-phenyl)-5-(2-propan-2-yl-pyrazol-3-yl)-benzamide]
0.29 | 79 | COc1ccc(-c2cc(C(=O)NC(C)(C)C)cc(-c3ccnn3C(C)C)c2)cc1 [Example 11, N-tert-Butyl-3-(4-methoxyphenyl)-5-(2-propan-2-yl-pyrazol-3-yl)-benzamide]
0.44 | 197.5 | CC(C)(C)NC(=O)c1cc(-c2ccc(F)c(F)c2)cc(-c2ccnn2C(C)(C)C)c1 [Example 36, N-tert-Butyl-3-(2-tert-butyl-pyrazol-3-yl)-5-(3,4-difluorophenyl)-benzamide]
0.89 | 81 | CC(C)(C)n1nccc1-c1cc(C(=O)NC(C)(C)C(F)(F)F)cc(-c2ccc(Cl)cc2)c1 [Example 42, 3-(2-tert-Butylpyrazol-3-yl)-5-(4-chlorophenyl)-N-(1,1,1-trifluoro-2-methyl-propan-2-yl)-benzamide]
